This note sets out measurements from US9636409B2, “Enzyme and receptor modulation using covalent conjugates of alpha,alpha-disubstituted glycine esters” (GlaxoSmithKline Intellectual Property Development Limited, priority 2008, dated 2017).

Molecules are shown by their SMILES. Where two headings read alike, the source gives them in different places.

The target in data set [1] is T1, recombinant hCE-1 (Homo sapiens, UniProt P23141).
T1 sequence (P23141 18-567): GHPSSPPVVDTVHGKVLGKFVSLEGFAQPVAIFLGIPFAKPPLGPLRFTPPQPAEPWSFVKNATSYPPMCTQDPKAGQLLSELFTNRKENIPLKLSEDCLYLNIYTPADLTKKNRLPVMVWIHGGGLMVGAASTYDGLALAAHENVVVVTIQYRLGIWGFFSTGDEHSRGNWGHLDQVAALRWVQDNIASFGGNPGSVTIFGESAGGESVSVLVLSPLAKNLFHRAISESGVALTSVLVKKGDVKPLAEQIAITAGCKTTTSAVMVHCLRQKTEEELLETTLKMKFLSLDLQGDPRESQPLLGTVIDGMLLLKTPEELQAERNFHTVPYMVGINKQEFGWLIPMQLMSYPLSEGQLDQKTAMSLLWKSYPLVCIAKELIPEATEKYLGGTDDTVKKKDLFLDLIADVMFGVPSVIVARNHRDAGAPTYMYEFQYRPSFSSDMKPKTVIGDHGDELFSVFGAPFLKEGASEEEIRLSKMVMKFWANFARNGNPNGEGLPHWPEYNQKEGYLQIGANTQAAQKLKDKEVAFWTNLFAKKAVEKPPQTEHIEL
As to the kind of experiment: HCE-1 carboxylesterase assay. The format is in vitro ADME. Conditions: result in words. The protocol:
HCE-1 Carboxylesterase Assay
Hydrolysis of esters to the corresponding carboxylic acids by hCE-1 can be measured using the following procedure. At zero time, 100 μl of recombinant hCE-1 at a concentration of 6 μg/mL in phosphate assay buffer (K2PO4 100 mM, KCl 40 mM, pH 7.4) was added to an equal volume of assay buffer containing 5 μM ester substrate. After thorough mixing, triplicate samples were incubated for 0, 20 or 80 minutes at 37° C. At the appropriate time, hydrolysis was stopped by the addition of 600 μl of acetonitrile. For zero time samples, the acetonitrile was added prior to the enzyme. The samples were analysed for the ester and its corresponding carboxylic acid at room temperature by LCMS (Sciex API 3000, HP1100 binary pump, CTC PAL). Chromatography was based on a […] (75×2.1 mm) column and a mobile phase of 5-95% acetonitrile in water/0.1% formic add. Levels of the acid, the hydrolysis product, after 80 minutes are expressed in ng/mL.

The subject of data set [2] is U937 cells. Briefly: U937 cell inhibition assay (WST-1 proliferation). The class given is cell-based. To be noted: for Ratio cell IC50s to enzyme IC50: U937 proliferation IC50 to HDAC enzyme IC50; for potency in the cellular (U937 proliferation) assay compared with the parent compound: versus Compound IV. As for the experimental part:
(§1) U937 and HUT Cell Inhibition Assay
(§2) Cancer cell lines (U937 and HUT) growing in log phase were harvested and seeded at 1000-2000 cells/well (100 μl final volume) into 96-well tissue culture plates. Following 24 hours of growth cells were treated with compound. Plates were then re-Incubated for a further 72-96 hours before a WST-1 cell viability assay was conducted according to the suppliers (Roche Applied Science) instructions.
(§3) Data were expressed as a percentage inhibition of the control, measured in the absence of Inhibitor, as follows: % inhibition=100−[(S^i/S^o)×100] where S^i is the signal in the presence of Inhibitor and S^o s the signal in the presence of DMSO.
(§4) Dose response curves were generated from 8 concentrations (top final concentration 10 μM, with 3-fold dilutions), using 6 replicates.
(§5) IC50 values were determined by non-linear regression analysis, after fitting the results to the equation for sigmoidal dose response with variable slope (% activity against log concentration of compound), using Graphpad Prism software.
Background: Formazan colour is commonly taken as a measure of viable cells.

Data set [3] deals with histone deacetylase activity (HeLa nuclear extract). As to the kind of experiment: Histone deacetylase activity (Fluor de Lys, HeLa nuclear extract). To be noted: read-out: Inhibition of HDAC (IC50 nM). The format is biochemical. As for the experimental part:
Histone Deacetylase Activity
The ability of compounds to inhibit histone deacetylase activities was measured using the commercially available HDAC fluorescent activity assay from Biomol. In brief, the Fluor de Lys™ substrate, a lysine with an epsilon-amino acetylation, is incubated with the source of histone deacetylase activity (HeLa nuclear extract) in the presence or absence of inhibitor. Deacetylation of the substrate sensitises the substrate to Fluor de Lys™ developer, which generates a fluorophore. Thus, incubation of the substrate with a source of HDAC activity results in an increase in signal that is diminished in the presence of an HDAC inhibitor.
Data are expressed as a percentage of the control, measured in the absence of inhibitor, with background signal being subtracted from all samples, as follows: % activity=[(S^i−B)/(S^o−B)]×100 where S^i is the signal in the presence of substrate, enzyme and Inhibitor, S^o is the signal in the presence of substrate, enzyme and the vehicle in which the inhibitor is dissolved, and B is the background signal measured in the absence of enzyme.
IC50 values were determined by non-linear regression analysis, after fitting the results of eight data points to the equation for sigmoidal dose response with variable slope (% activity against log concentration of Compound), using Graphpad Prism software.
Histone deacetylase activity from crude nuclear extract derived from HeLa cells was used for screening. The preparation, purchased from 4C (Seneffe, Belgium), was prepared from HeLa cells harvested whilst in exponential growth phase. The nuclear extract was prepared according to the methodology described by J. D. Dignam, Nucl. Acid. Res., 1983, 11, 1475-1489, snap frozen in liquid nitrogen and stored at −80° C. The final buffer composition was 20 mM Hepes, 100 mM KCl, 0.2 mM EDTA, 0.5 mM DTT, 0.2 mM PMSF and 20% (v/v) glycerol.

The subject of data set [4] is HUT 78 cells. Briefly: HUT cell inhibition assay (WST-1 proliferation). The class given is cell-based. To be noted: Table 5; for IC50: HUT 78 cells; for Ratio IC50s in HUT 78 to U937 cells: proliferation IC50s. As for the experimental part: as §1, §2, §3, §4, §5
Data set [5] relates to phosphorylation of MAPKAP-2 in HUT 78 cells. As to the kind of experiment: p38 MAP Kinase cellular assay: inhibition of phosphorylation of MAPKAP2 in HUT 78 cells. The format is cell-based. To be noted: for IC50: Homo sapiens, HuT78, HUT 78 non-monocyte cell line; for Ratio IC50s in HUT 78 to U937 cells: MAPKAP-2 phosphorylation IC50s. As for the experimental part: (§6) p38 MAP Kinase Cellular Assay: Inhibition of Phosphorylation of MAPKAP2
(§7) U937 or HUT78 cells were plated in RPMI 1640, and were incubated at 37° C., 5% CO2 for 18 hours. 10 mM stocks of compounds were diluted media/0.1% DMSO to give a log or semi-log dilution series. The wells for ‘no treatment’ and ‘anisomycin’ were treated with 0.1% DMSO only. The cells were incubated at 37° C., 5% CO2 for a further 4 hours. Anisomycin was added to all wells except ‘no treatment’ at a final concentration of 10 μM. The cells were incubated at 37° C., 5% CO2 for 30 minutes before harvest. Plates were stood on ice whilst harvesting, and all following steps were carried out at 4° C. The cells were pelleted at 1000 rpm for 10 minutes at 4° C., the media aspirated, and the pellet washed with cold PBS. The pellets were lysed in 120 μl of SDS lysis buffer (62.5 mM Tris, pH 6.8, 2% SDS, 10% glycerol, 50 mM DTT, with protease inhibitors and phosphatase inhibitors added according to the manufacturers' recommendations). After 30 minutes on ice, the samples were sonicated for 5 seconds before centrifugation at 13,000 rpm 4° C. for 10 minutes to remove cell debris. 10 μl of the resulting gel samples were loaded per lane on NOVEX 4-12% Bis-Tris MOPS gels. Membranes from western transfer of gels were blotted with anti-phospho MAPKAP2, anti-phospho HSP27 and anti GAPDH according to the manufacturers' Instructions. Signal was visualised using HRP-Hnked anti-rabbit or anti-mouse antibodies, ECL reagent and ECL film. IC50 values for the various compounds were visualised from the resulting photographic images, using both band-shift and signal intensity.

The test system of data set [6] is phosphorylation of MAPKAP-2 in U937 cells. As to the kind of experiment: p38 MAP Kinase cellular assay: inhibition of phosphorylation of MAPKAP2 in U937 cells. Conditions: for IC50: Homo sapiens, U-937, U937 monocyte cell line, read-out: Inhibition of phosphorylation of MAPKAP-2 in U937 cells (IC50, nM) (monocyte cell line). The format is cell-based. The protocol: as §6, §7

Setting [7] is: Homo sapiens, U-937, Table 4, head prints no unit, same values in Table 5 as IC50 nM, read-out: Inhibition of proliferation in U937 cells.
[8] abbreviates: Homo sapiens, U-937, Table 5, U937 cells, read-out: Inhibition of proliferation in U937 cells (IC50 nM).
Setting [9] is: Table 4, Acid = carboxylic acid hydrolysis product of the ester.
Where [10] appears, read: Table 4, compound as such, Ester for Examples 7 and 9.
Where [11] appears, read: Table 5, Acid = carboxylic acid hydrolysis product of the ester.
[12] abbreviates: Table 5, compound as such, Ester for Examples 7 and 9.

A word on the inhibition: it is the drop in the measured response relative to a control, in per cent. Higher therefore signals a response far below the control.

On to `O=C(CCc1ccc(CNC2(C(=O)OC3CCCC3)CCCC2)cc1)NO` [Example 7, Cyclopentyl 1-({4-[3-(hydroxyamino)-3-oxopropyl]benzyl}amino)cyclopentanecarboxylate], for which, in data set [1], the “hydrolysis by hCE-1” value is given as “hydrolysed by hCE-1”. Also, the IC50 turned out to be 180 nM in data set [2] (setting [7]); 180 nM in data set [2] (setting [8]); 6120 nM in data set [3] (setting [9]); 4200 nM in data set [3] (setting [10]); 6120 nM in data set [3] (setting [11]); 4200 nM in data set [3] (setting [12]). In addition, the IC50 in data set [4] (Homo sapiens, HuT78) worked out at 6200 nM. Further, in data set [2] (Table 4), the “Ratio cell IC50s to enzyme IC50” value is reported as 0.043. Moreover, in data set [2], the “potency in monocytic (U937) versus non monocytic (Hut78) cell lines (proliferation)” value was found to be 30 times. In addition, in data set [2], the “potency in the cellular (U937 proliferation) assay compared with the parent compound” value is given as “significantly more potent than the parent compound”. Besides, the “Ratio IC50s in HUT 78 to U937 cells” value in data set [4] was 34.

Take `CC(C)CC(C)(NCc1ccc(CCC(=O)NO)cc1)C(=O)OC1CCCC1` (racemic) [Example 9, Cyclopentyl N-{4-[3-(hydroxyamino)-3-oxopropyl]benzyl}-2-methyl-D,L-leucinate]: the IC50 came out at 190 nM in data set [2] (setting [7]); 190 nM in data set [2] (setting [8]); 6240 nM in data set [3] (setting [9]); 4900 nM in data set [3] (setting [10]); 6240 nM in data set [3] (setting [11]); 4900 nM in data set [3] (setting [12]). The compound also displayed an IC50 in data set [4] (Homo sapiens, HuT78) of 5500 nM. Further, the “Ratio cell IC50s to enzyme IC50” value in data set [2] (Table 4) worked out at 0.04. The “potency in monocytic (U937) versus non monocytic (Hut78) cell lines (proliferation)” value in data set [2] came to 30 times. Also, the “potency in the cellular (U937 proliferation) assay compared with the parent compound” value in data set [2] was “significantly more potent than the parent compound”. In addition, the “Ratio IC50s in HUT 78 to U937 cells” value in data set [4] is 30.

With `O=C(CCc1ccccc1)NO` [Compound IV, N-Hydroxy-3-phenyl-propionamide, reference compound], the inhibition at 10 µM in data set [2] (Homo sapiens, U-937, Table 4, @ 10 μM) is 13%; in data set [4] (Homo sapiens, HuT78, @ 10 μM), 10%. Further, the “Ratio cell IC50s to enzyme IC50” value in data set [2] (Table 4) is greater than 3.85. In addition, the “Inhibition of proliferation in U937 cells” value in data set [2] (Table 5, @ 10 μM) stood at 13% @ 10 μM. The IC50 in data set [3] (setting [10]) and in data set [3] (setting [12]) was 2600 nM in each case. Also, in data set [4], the “Ratio IC50s in HUT 78 to U937 cells” value is on record as roughly 1.

Turning to `Nc1c(C(=O)c2ccc(F)cc2F)ccc(=O)n1-c1c(F)cccc1F` [Compound II, reference compound], in data set [5] (Table 3), the IC50 stood at 10 nM and the “Ratio IC50s in HUT 78 to U937 cells” value was determined as 1. For the same compound, in data set [6] (Table 3), the IC50 amounted to 10 nM.

Consider `Nc1c(C(=O)c2ccc(F)cc2F)ccc(=O)n1-c1c(F)cc(OCCC[C@H](N)C(=O)OC2CCCC2)cc1F` [Compund III, reference compound], for which, in data set [5] (Table 3), the IC50 worked out at 1 nM and the “Ratio IC50s in HUT 78 to U937 cells” value is given as 1. Moreover, in data set [6] (Table 3), the IC50 is 1 nM.

With `Nc1c(C(=O)c2ccc(F)cc2F)ccc(=O)n1-c1ccc(CCNC2(C(=O)OC3CCCC3)CCCC2)cc1` [Example 3], in data set [5] (Table 2), the IC50 was 10000 nM and the “Ratio IC50s in HUT 78 to U937 cells” value is reported as 100. Moreover, in data set [6] (Table 2), the IC50 was found to be 100 nM. Also, the “potency in monocytic versus non monocytic cell lines (MAPKAP-2 phosphorylation)” value in data set [6] (U937 versus HUT 78) stood at 100 times.

On to `CC(N)(CCCOc1cc(F)c(-n2c(N)c(C(=O)c3ccc(F)cc3F)ccc2=O)c(F)c1)C(=O)OC1CCCC1` (centres unmarked) [Example 5], for which, in data set [5] (Table 3), the IC50 amounted to 100 nM and the “Ratio IC50s in HUT 78 to U937 cells” value is on record as 20. Moreover, the IC50 in data set [6] (Table 3) worked out at 5 nM. Moreover, in data set [6] (result in words), the “macrophage selectivity (MAPKAP-2 phosphorylation, U937 versus HUT 78)” value is “macrophage selective”.
